# Data from patent US6407058B1, “Modifying the permeability of physiological barriers” (Eisai Co., Limited, priority 1996, dated 2002).
# Columns and labels:
# Assay type in all cases: cell-based
# p100/p120 [1] = assay: p100/p120 electrophoretic mobility, human umbilical vein endothelial cells (HUVECs); settings: HUVECs, 200 nM PDB, 30 minutes
# Procedure: (§1) Cells were treated with or without 200 nM PDB for 30 minutes, lysed into Laemmli sample buffer, separated by electrophoresis and analysed by immunoblotting with antibodies recognising p100 and p120.
# Human umbilical vein endothelial cells were incubated with histamine (His), pyrilamine (Pyr) or cimetidine (Cim) alone or in combination. As indicated, cells were preincubated in the absence or presence of cimetidine (10 μM) or pyrilamine (10 μM) for 10 minutes and then treated with or without histamine (10 μM) for a further 10 minutes. The cells were extracted and protein analysed by gel electrophoresis and immunoblotting. […] In the following examples, increase mobility of p100/p120 means decreased phosphorylation.
# (§2) Whole cell lysates were prepared by rapidly replacing the culture medium in 6.5 mm with hot Laemmli sample buffer, followed by heating at 100° C. for 5 minutes. Immunoprecipitations were carried out at 4° C. Confluent monolayers of cells were washed rapidly with ice cold PBS (containing 0.9 mM CaCl2 and 0.5 mM MgCl2) before addition of 0.5 ml of the appropriate buffer. The filters were then gently scraped, and the lysate was removed and centrifuged at 14000× g. The supernatant was precleared with 10% (w/v) protein A-Sepharose in lysis buffer for 30-60 minutes. Appropriate primary antibodies were added to the lysate, and after 2-3 hours the immunecomplex was isolated, using rabbit anti-mouse secondary antibodies (Jackson Immunoresearch Labs Inc., West Grove, Pa.) and protein A-Sepharose. The beads were washed fives times with lysis buffer, and the bound protein was solubilized in SDS-sample buffer, followed by heating at 100° C. for 5 minutes.
# Cell extracts or immunoprecipitates in SDS sample buffer were resolved by SDS-PAGE. The slab gels were then equilibrated in buffer comprising; 48 mM Tris, 39 mM glycine, 20% methanol and 0.03% SDS. Proteins were transferred to nitrocellulose filters (Hybond ECL; Amersham), which were Ponceau S stained and then blocked for 2 hours at 37° C. with 1% BSA in PBS containing 0.05% Tween-20. Filters were then probed with p120 antibody, at a dilution of 1:2500. After washing, filters were incubated with horseradish peroxidase conjugated anti-mouse antibody (Amersham), at a dilution of 1:5000. The filters were then extensively washed in PBS/0.5% Tween-20, and immunoreactive bands were detected by enhanced chemiluminescence (Amersham) following the manufacturers instructions.
# p100/p120 [2] = assay: p100/p120 electrophoretic mobility, primary pig brain endothelial cells (PBECs); settings: PBECs, 200 nM PDB, 30 minutes
# Procedure: as §1
# MDCK strain I and II cells were provided by Barry Gumbiner (memorial Sloan-Kettering Cancer Center, NY). LLC-PK1 and Caco-2 cells were obtained from the European Collection of Animal Cell Cultures. All cells were maintained at 37° C. under 5% CO2 in humidified air. MDCK strain I and II cells were maintained in MEM containing 10% FCS, 100 U/ml penicillin, 100 μg/ml streptomycin and 2 mM L-glutamine. Caco-2 cells were maintained in MEM containing 15% FCS, 1% non-essential amino acids and 1 μg/ml bovine insulin (Sigma I-6634). LLC-PK1 cells were grown in M199 (Gibco), 10% FCS, 100 U/ml penicillin, 100 μg/ml streptomycin and 2 mM L-glutamine. For whole cell lysate analysis, 10^5 cells were plated on 6.5 mm diameter, 0.4 μm, polycarbonate Transwell filters from Costar, in 0.25 ml of medium. The basolateral chamber contained 0.75 ml of medium. For immunoprecipitation, 5×10^5 cells were plated onto 24 mm Transwell filters, in 2 ml of medium, with 3 ml of medium in the lower chamber. Cells were used 4-7 days after plating. Tissue culture materials were from Gibco. Porcine brain endothelial cells were isolated and grown by modifications of a previously published procedure (Rubin et al., 1991). Brain capillary fragments were plated on dishes coated with rat tail collagen and human fibronectin. The cultures were fed every other day with growth medium composed of 50% astrocyte-conditioned medium and 50% Dulbecco's Modified Eagle Medium containing 10% plasma-derived serum, 125 μg/ml heparin, antibiotics and glutamine. They were incubated in a humidified atmosphere of 10% CO2 at 37° C. When the endothelial cells were approximately 50% confluent (after 4-6 days in culture), they were trypsinized and plated onto collagen-coated polycarbonate Transwell filters (6.5 mm diameter, 0.4 μm pore size, tissue culture treated, Costar Corp, Cambridge, Mass., U.S.A.) in the same medium (250 μl apically, 750 μl basolaterally). After 2-3 days on filters, the medium was switched to a 1:1 mixture of astrocyte-conditioned medium and a Dulbecco's Modified Eagle Medium-based, chemically defined medium (‘N2’, Rubin et al., 1991; Bottenstein and Sato, 1979). The final concentration of plasma-derived serum was 5%. Human umbilical vein endothelial cells were from Clonetics.
# as §2, with “A-Sepharose.” for “A-Sepharose. The beads were washed fives times with lysis buffer, and the bound protein was solubilized in SDS-sample buffer, followed by heating at 100° C. for 5 minutes.”
# E-cadherin = assay: [32P] phosphorylation of immunoprecipitated E-cadherin, MDCK I cells; settings: PDB-treated, same cell lysates
# p100/p120 [3] = assay: p100/p120 electrophoretic mobility, human umbilical vein endothelial cells (HUVECs); settings: HUVEC, 5 minutes; histamine 10 μM, PDB 200 nM
compound,measurement,setting,value
"CCCC(=O)O[C@@H]1[C@@H](C)[C@@]2(O)[C@@H](C=C(CO)C[C@]3(O)C(=O)C(C)=C[C@@H]23)[C@@H]2C(C)(C)[C@]12OC(=O)CCC [PDB, Phorbol-12,13-dibutyrate]",mobility of p100 and p120,p100/p120 [1],the mobility of p100 and p120 increased
same,mobility of p100 and p120,p100/p120 [2],the mobility of p100 and p120 increased
same,phosphorylation of E-cadherin,E-cadherin,no change
same,mobility of p120 and p100,p100/p120 [3],increased mobility
